From a melting point compilation (Tetko et al.)

Row | Structure (SMILES) | melting point [°C]
1 | C=CCCCCCCC(=O)O | 5
2 | COc1ccc(C(=O)c2cccc(C)c2)cc1C | 62.3
3 | c1ccc(-c2cccs2)nc1 | 63
4 | COc1ccc(C(=O)CCl)cc1 | 98 to 100
5 | Cc1cc(C(F)(F)F)n2nc(N)c(/N=N/c3ccccc3Cl)c2n1 | 238
6 | CCOC(=O)C(C)(C)C1(O)CCC2(C)C(CCC3C2CCC2(C)C(OCc4ccccc4)CCC32)C1 (stereo not given) | 147
7 | CCCCc1c(C)nc(N(C)C)nc1O | 102
8 | CS(=O)(=O)OCCC(=O)N1CCN(C(=O)CCOS(C)(=O)=O)CC1 | 175
9 | N#Cc1cccc(-n2cccc2C=O)c1 | 139 to 141
10 | FC(F)(F)C1(F)C(F)(F)C(F)(F)C(F)(F)C(F)(F)C1(F)C(F)(F)F (stereo not given) | -56
11 | O=C(C1=NOC2C(=O)N(c3ccccc3[N+](=O)[O-])C(=O)C12)c1ccco1 (stereo not given) | 209
12 | c1ccc(-c2ccccc2-c2ccccc2-c2ccccc2)cc1 | 118
13 | Cc1c2c(c(CCl)c3c1CC3)CC2 | 73
14 | CCOC(=O)C1C(c2ccc(F)cc2)C(C(=O)OCC)C(O)(C(F)(F)F)NC1(O)C(F)(F)F (stereo not given) | 84
15 | O=C1C=C(Nc2ccccc2)CCC1 | 178 to 182
16 | CCc1n[nH]c2c1C(c1ccccc1)C(C#N)=C(N)O2 (stereo not given) | 192 to 196
17 | O=C(Nc1ccccc1)OCC1(COC(=O)Nc2ccccc2)CCCC1 | 152
18 | ClCc1cc(-c2ccccc2)on1 | 48 to 49
19 | CC(=O)Oc1ccc2c3c1OC1C(OC(C)=O)C=CC4C(C2)N(C)CCC341 (stereo not given) | 173
20 | Oc1ccccc1C1Nn2c(COc3ccccc3)nnc2S1 (stereo not given) | 217
21 | N#CCC(=O)OCc1ccccc1 | 28
22 | CC(Cl)C(C)Cl (stereo not given) | -80
23 | CC(=O)OCC(=O)C1(OC(C)=O)CCC2(C)C(CCC3C4CCC(=O)C4(C)CCC32)C1 (stereo not given) | 141

Row | Structure (SMILES) | melting point [°C]
24 | COc1ccc(OC2OC(CO)C(O)C(O)C2O)cc1 (stereo not given) | 159
25 | COC1CCC=CO1 (stereo not given) | 16
26 | CCCNC(=O)C(C(F)(F)F)C(F)(F)F | 105 to 107
27 | O=C1Nc2ccccc2C1=Nn1c(S)nnc1C(F)(F)F | 300
28 | C=C(C)CCC=C(C)C | -70
29 | CNC(=C[N+](=O)[O-])NCCSCc1csc(CN(C)C)n1 | 203
30 | O=C(NC(=O)c1c(F)cccc1F)Nc1cc(Cl)c(Oc2ncc(C(F)(F)F)cc2Cl)c(Cl)c1 | 223
31 | CCCCCCCCCCCC(N)=O | 110
32 | CN1CCC2=C(C1)C(c1ccccc1)c1ccccc12 (stereo not given) | 91
33 | Nc1ncc(C(F)(F)F)cc1Br | 100
34 | CN(C(=O)C(F)(F)C(F)(F)C(F)(F)C(F)(F)C(F)(F)C(F)(F)C(F)(F)C(F)(F)F)C1CCCCC1 | 57
35 | C#CCCC#C | -6
36 | O=[N+]([O-])c1ccccc1S(=O)(=O)Cl | 67
37 | Nc1ccc(S(=O)(=O)c2ccc(NCCO)cc2)cc1 | 131
38 | C=C1C(=O)C23C(OC(C)=O)CC4C5(C)CCCC4(C(OC(C)=O)OC5)C2C(OC(C)=O)CC1C3OC(C)=O (stereo not given) | 224
39 | CCCCCCCCCCCCCCCCCC(=O)OCCO | 60.5
40 | CCCCCCCCCCCCCC(C)CC (stereo not given) | -15
41 | Oc1ccc(Cl)cc1C1CCCCC1 | 59 to 60
42 | CCCCCCCCCOc1ccc(N)cc1 | 39
43 | O=Cc1cccc2cc[nH]c12 | 88
44 | O=C1CCCCCCCN1 | 78
45 | O=C(O)CN1CCOCCOCCN(CC(=O)O)CCOCCOCC1 | 173 to 175
46 | O=S(=O)(Cl)c1ccc(-c2ccc(F)cc2)cc1 | 82 to 84

Row | Structure (SMILES) | melting point [°C]
47 | CCCC(CCC)C(N)=O | 125
48 | N#CC1=C(N)Oc2c(c(C(F)(F)F)nn2-c2ccccc2)C1c1c(Cl)cc(Cl)cc1Cl (stereo not given) | 207
49 | CCCCCCCC[C@@H](O)CO | 60 to 62
50 | CC(=O)c1c(O)c(C)c(O)c(Cc2c(O)c3c(c(C(=O)C=Cc4ccccc4)c2O)OC(C)(C)C=C3)c1O | 212
51 | O/N=C1/CC(c2ccccc2)Cc2ccncc21 (stereo not given) | 227
52 | Clc1c(Cl)c(Cl)c2c(oc3ccccc32)c1Cl | 169
53 | O=C1C(Cl)=C(Cl)C(=O)N1c1ccc(F)cc1 | 241
54 | ON=Cc1ccc[nH]1 | 165
55 | c1ccc(Oc2nc(-c3ccccc3)nc3nc4ccccc4n23)cc1 | 247
56 | C[Si](C)(C)C1=CC2CCCCC2C1=O (stereo not given) | 59
57 | NC(=O)C1=CNCCC1C(F)(F)F (stereo not given) | 184 to 187
58 | C(=CC=Cc1ccccc1)C=Cc1ccccc1 | 199 to 203
59 | O=C(CCl)NC1CC1 | 82
60 | N#Cc1c(F)cccc1Sc1ccc(Cl)cc1 | 70
61 | CC(C)CS(=O)(=O)CC(C)C | 17
62 | Nc1cccnc1Br | 77
63 | N#CC(C#N)=c1c(F)c(F)c(=C(C#N)C#N)c(F)c1F | 291
64 | O=C1c2ccccc2C(=O)N1SC(Cl)(Cl)Cl | 178
65 | OCCCc1ccccn1 | 34
66 | N#C/C(=N/Nc1ccc(Cl)cc1)c1nc(-c2ccc(Cl)cc2)cs1 | 240
67 | Cc1cc(C(F)(F)F)n2nc(N)c(/N=N/c3cccc4ccccc34)c2n1 | 236

Other lines, results leading:

Row | melting point [°C] | Structure (SMILES)
68 | 41.5 | C=C1C[C@H]1C(O)C(=O)OC (stereo not given in full)
69 | 69 | COc1c(F)cc(O)cc1F
70 | 55 to 57 | COc1c(OC)c(=O)c1=O
71 | 17 | O=C(O)C1CC=CCC1 (stereo not given)
72 | 86 to 88 | Nc1ccc(F)cc1N
73 | 24.5 | COc1ccc(C(=O)Cl)cc1
74 | 66 | O=C(c1ccccc1)c1ccc(C(F)(F)F)c(F)c1
75 | 58 to 60 | COc1ccc(C(=O)CCCCl)c(OC)c1
76 | 131 to 133 | Cc1oc(-c2ccccc2)nc1CC(=O)O
77 | 165 | Cc1nc(C=O)c[nH]1
78 | 150 | Nc1ccc2c(c1)S(=O)(=O)C=C2
79 | 91 to 93 | CCCC(=O)Oc1c[nH]c2ccc(Br)c(Cl)c12
80 | 66 to 69 | CO/C(C)=C(\C#N)c1ccccc1[N+](=O)[O-]
81 | 148 | CC1(C)C2CCC1(C)C(NC(=O)c1ccccc1)C2NC(=O)c1ccccc1 (stereo not given)
82 | 60 to 62 | COc1ccc(C(=O)C(C#N)=C(SC)SC)cc1
83 | 125 to 128 | CC1=NN(c2cccc(Cl)c2)C(=O)C1
84 | 39 to 40 | CCOC(=O)Cc1ccc(O)cc1
85 | 138 to 139 | O=C(CBr)c1csc2ccccc12
86 | 57 to 59 | CC(=O)Oc1ccc(C(C)=O)c(O)c1
87 | 130 | Cc1cc[nH]c(=O)c1
88 | 130 to 133 | CCOC(=O)c1[nH]c2ccccc2c1C

Row | melting point [°C] | Structure (SMILES)
89 | 152 | Cc1cc(C)c(C(=O)O)cc1C
90 | 203 | Cc1ccc2nc(C)[nH]c2c1
91 | 110 | CC(C)(C)OC(=O)N[C@@H](Cc1ccc(Cl)cc1)C(=O)O
92 | -28 | CC(=O)Oc1c(C)c(C)c2c(c1C)CCC(C)(CCCC(C)CCCC(C)CCCC(C)C)O2 (stereo not given)
93 | 44 | Nc1cc(F)ccc1Br
94 | 94 to 96 | CSc1ccc(C(F)(F)F)cc1[N+](=O)[O-]
95 | 183 to 185 | COc1cc(CC(=O)O)cc(Br)c1O
96 | -30.6 | C=C(C)c1ccc(C(C)C)cc1
97 | 178 to 182 | O=C(O)Cc1ccccc1C(=O)O
98 | 163 | CCc1ccc(C(N)=O)cc1
99 | 70 to 72 | COc1cccc(OCc2ccccc2)c1C#N
100 | 270 | CCC1Nc2cc(Cl)c(S(N)(=O)=O)cc2S(=O)(=O)N1 (stereo not given)
101 | 173 | Cc1cc(O)c(C)c(C)c1O
102 | 4 | Fc1cc(F)c(Br)c(F)c1
103 | 46 | COc1ccc(CCO)cc1OC
104 | 95 | O=C(Oc1cccc([N+](=O)[O-])c1)c1ccccc1
105 | 67 to 68 | O=C(Cl)c1ccc2occc2c1
106 | 140 | CC(=O)Oc1cccc(C(N)=O)c1
107 | 112 | CCOC(C)=NOc1ccc([N+](=O)[O-])cc1[N+](=O)[O-]
108 | 105 | Cc1cc(C)c2c(c1)OC(=O)C2
109 | 250 to 254 | CC(C)(C)C(=O)Nc1ccncc1C(=O)O

Row | melting point [°C] | Structure (SMILES)
110 | 80 to 81 | CCOC(=O)c1cc2ccccc2cc1O
111 | 163 | CCCOC(=O)C1=C(C)NC(=O)NC1c1cccc(OC)c1OC (stereo not given)
112 | 52 | COc1ccc(CC#N)cc1Br
113 | 210 to 212 | Cc1ccc(O)c(C)n1
114 | 182 | CC1(C)OC(=O)C(=Cc2cccs2)C(=O)O1
115 | 155 to 156 | CCOC(=O)C(C#N)=NNc1cccc([N+](=O)[O-])c1
116 | 201 to 203 | COc1ccc(/N=N/c2c(N)nn3c(C)cc(C)nc23)cc1
117 | 159 | COc1cc([N+](=O)[O-])c2ncccc2c1
118 | 74 | CC(=O)c1c2ccccc2cc2ccccc12
119 | 238 to 241 | Cc1ccc(S(=O)(=O)n2cc(C=CC(=O)O)c3ccccc32)cc1
120 | 36 | CCN(CC)C(=O)c1ccccc1C(=O)N(CC)CC
121 | 100 to 102 | CCc1cc(C(=O)c2ccc(OC)cc2)c(N)s1
122 | 126 | COc1ccc2ccccc2c1C
123 | 225 | CCOC(=O)c1nn(-c2ccc(C)cc2)c(C)c1C(=O)C1=NOC2C(=O)N(c3cc(Cl)ccc3Cl)C(=O)C12 (stereo not given)
124 | 230 to 236 | O=C(O)CCSC1=CC(=O)C(SCCC(=O)O)=CC1=O
125 | 145 to 149 | O=[N+]([O-])c1ccc2c(c1)OCO2
126 | 151 | Cc1cc(S(N)(=O)=O)ccc1Br
127 | 241 | O=Cc1c[nH]c2ccc(OCc3ccccc3)cc12
128 | 116 | COC(=O)C1(S(=O)(=O)c2ccc(Cl)cc2)CC1
129 | 159 to 161 | CC(C)NC(=O)c1cc(F)c(Cl)nc1Cl
130 | 128 | CC(C)NCC(O)COc1ccc(O)cc1 (stereo not given)
